US9969743B2, “Urea and amide derivatives of aminoalkylpiperazines and use thereof” (Southern Research Institute, priority 2012, dated 2018)

Tests used:
[1] = molecular target: human D3 dopamine receptor (Homo sapiens (Human), UniProt P35462); assay: Radioligand binding (125I-IABN competition), D3 dopamine receptor; conditions: for Ki: 125I-IABN competition, membranes of stably transfected HEK cells, 37° C. 60 min, Cheng and Prusoff; for D2/D3 (D3 selectivity ratio, D2 Ki/D3 Ki): calculated from binding Ki values
Experimental: (§1) Binding Affinity. The affinities of the target compounds were determined using radioligand binding experiments.
(§2) Competition curves were modeled for a single site. Data from competition dose-response curves were analyzed using Tablecurve program (Jandel). IC50 values were converted to equilibrium dissociation constants (Ki values) using the Cheng and Prusoff correction.

[2] = molecular target: human D2-long dopamine receptor (Homo sapiens (Human), UniProt P14416); assay: Radioligand binding (125I-IABN competition), D2-long dopamine receptor; conditions: membranes of stably transfected HEK cells, 37° C. 60 min, Cheng and Prusoff
Experimental: as §1, §2

[3] = molecular target: human D2 dopamine receptors (HEK cells) (Homo sapiens (Human), UniProt P14416); assay: Whole cell adenylyl cyclase assay, D2; type: cell-based; conditions: inhibition of forskolin (100 μM) stimulated cAMP, normalized to quinpirole; conc >10× Ki, per compound in Conc (nM); mean ± S.E.M.
Experimental: Functional Activity. Whole cell adenylyl cyclase assay. The intrinsic activity of the compounds was evaluated by determining their ability to inhibit forskolin-dependent (100 μM) stimulation of adenylyl cyclase activity using a whole cell assay. A whole cell-cyclic AMP accumulation assay was performed with stably transfected HEK cells expressing human D2 or D3 dopamine receptors. This assay is an adaptation of an earlier published method (Su et al., Cyclic Nucleotide Res. 1976, 2, 257-285). Details regarding this method have been published (Chu, W. et al. Bioorg. Med. Chem. 2005, 13, 77-87; Taylor, M. et al. Synapse 2010, 64, 251-266). Confluent (60-80%) HEK cells transfected with recombinant D2-like dopamine receptors were grown in DMEM/10% fetal calf serum containing geneticin in […]. The endogenous ATP pool is radioactively labeled by preincubating the cells in serum-free DMEM/25 mM Hepes medium containing 2 μCi/mL of [2,8-^3H]-adenine (20-Ci/mmol) in a 5% CO2 incubator at 37° C. for 75 min. The radioactive medium was removed by aspiration. Serum-free DMEM (5.6 mL) containing 25 mM HEPES, pH 7.4, and 0.1 mM of the phosphodiesterase inhibitor isobutylmethylxanthine was added to the flask. A 400-μL aliquot of cells was removed and added to 50 μL of forskolin (100 μM) and 50 μL of test drug or quinpirole in DMEM-HEPES. The cells were incubated for 20 min at 37° C. (vortexing every 5 min). The reaction was terminated by the addition of 0.5 mL of 10% trichloroacetic acid (w/v) containing 1.0 mM unlabeled cyclic AMP as a recovery standard. Both the [^3H]-cyclic AMP and the [^3H]-ATP fractions were collected following separation using columns of Dowex AG-50W-X4 and alumina. The final yield of [^3H]-cyclic AMP is corrected for column recovery of unlabeled cyclic AMP determined spectrophotometrically (OD259). The results are reported as percent conversion of [^3H]-ATP into [^3H]-cyclic AMP. The values for the percent inhibition are reported as the actual percent of inhibition of the ^3H-cAMP accumulation relative to the assay performed in the absence of a test compound, minus basal activity. […] The percent maximum response is the value for the inhibition normalized to the value for the full agonist quinpirole.

human D3 dopamine receptor, sequence (P35462 whole entry): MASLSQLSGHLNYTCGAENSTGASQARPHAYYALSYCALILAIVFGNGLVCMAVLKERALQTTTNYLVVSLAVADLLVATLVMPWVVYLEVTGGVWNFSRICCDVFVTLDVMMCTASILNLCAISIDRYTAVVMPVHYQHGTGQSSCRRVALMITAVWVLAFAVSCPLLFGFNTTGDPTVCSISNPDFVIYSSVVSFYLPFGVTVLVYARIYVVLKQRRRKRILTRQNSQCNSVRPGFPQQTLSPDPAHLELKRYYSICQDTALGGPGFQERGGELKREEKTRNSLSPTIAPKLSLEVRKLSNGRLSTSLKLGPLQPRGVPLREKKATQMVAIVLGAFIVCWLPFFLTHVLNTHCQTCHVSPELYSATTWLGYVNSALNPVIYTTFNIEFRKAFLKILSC
human D2 dopamine receptors (HEK cells), sequence (P14416 whole entry): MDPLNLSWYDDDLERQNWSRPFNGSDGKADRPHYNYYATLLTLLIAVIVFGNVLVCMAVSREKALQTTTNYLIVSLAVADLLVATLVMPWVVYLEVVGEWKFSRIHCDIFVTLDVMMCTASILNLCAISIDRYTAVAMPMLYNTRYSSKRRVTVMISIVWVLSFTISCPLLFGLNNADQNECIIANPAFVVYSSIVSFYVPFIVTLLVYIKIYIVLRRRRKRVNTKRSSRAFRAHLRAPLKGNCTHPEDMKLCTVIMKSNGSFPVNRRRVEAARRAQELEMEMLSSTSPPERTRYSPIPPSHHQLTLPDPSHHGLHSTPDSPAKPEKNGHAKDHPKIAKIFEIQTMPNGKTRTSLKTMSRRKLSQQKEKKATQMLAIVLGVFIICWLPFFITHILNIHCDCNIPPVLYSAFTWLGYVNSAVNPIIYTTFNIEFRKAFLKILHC
human D2-long dopamine receptor, sequence (P14416 whole entry): as above

| Compound | Ki [1] | D2/D3 (D3 selectivity ratio, D2 Ki/D3 Ki) [1] | Ki [2] | D2 Cyclase % Inhibition Normalized [3] |
| --- | --- | --- | --- | --- |
| CC(C)(C)c1cc(N2CCN(CCCCNC(=O)N3CCc4c([nH]c5ccccc45)C3)CC2)nc(C(C)(C)C)n1 [Compound 56, N-(4-(4-(2,6-Di-tert-butylpyrimidin-4-yl)piperazin-1yl)butyl)-1,3,4,9-tetrahydro-2H-pyrido[3,4-b]indole-2-carboxamide] | 9.5 ± 1.7 nM | 33 | 308 ± 29.9 nM | – |
| CC(C)(C)c1nc(N2CCN(CCCCNC(=O)c3cn4nc(Cl)ccc4n3)CC2)cc(C(F)(F)F)n1 [Compound 116, N-(4-(4-(2-(tert-Butyl)-6-(trifluoromethyl)pyrimidin-4-yl)piperazin-1-yl)butyl)-6-chloroimidazo[1,2-b]pyridazine-2-carboxamide] | – | – | – | Insoluble |
| CC(C)(C)c1cc(N2CCN(CCCCNC(=O)N3CCc4c([nH]c5ccccc45)C3)CC2)cc(C(C)(C)C)c1 [Compound 97, N-(4-(4-(3,5-Di-tert-butylphenyl)piperazin-1-yl)butyl)-1,3,4,9-tetrahydro-2H-pyrido[3,4-b]indole-2-carboxamide] | 245 ± 46.4 nM | 10 | 2440 ± 175 nM | – |
| CC(C)(C)c1nc(N2CCN(CCCCNC(=O)c3cn4ccncc4n3)CC2)cc(C(F)(F)F)n1 [Compound 115, N-(4-(4-(2-(tert-Butyl)-6-(trifluoromethyl)pyrimidin-4-yl)piperazin-1-yl)butyl)imidazo[1,2-a]pyrazine-2-carboxamide] | – | – | – | Insoluble |
| CC(C)(C)c1nc(C2CC2)cc(N2CCN(CCCCNC(=O)N3CCc4c([nH]c5ccccc45)C3)CC2)n1 [Compound 101, N-(4-(4-(2-(tert-Butyl)-6-cyclopropylpyrimidin-4-yl)piperazin-1-yl)butyl)-1,3,4,9-tetrahydro-2H-pyrido[3,4-b]indole-2-carboxamide] | 57.1 ± 3.5 nM | – | 789 ± 45.7 nM | – |
| CC(C)(C)c1nc(N2CCN(CCCCNC(=O)N3CCC(c4ccccc4)CC3)CC2)cc(C(F)(F)F)n1 [Compound 48, N-(4-(4-(2-(tert-Butyl)-6-(trifluoromethyl)pyrimidin-4-yl)piperazin-1-yl)butyl)-4-phenylpiperidine-1-carboxamide] | – | – | – | Insoluble |
| CC(C)(C)c1nc(N2CCN(CCCCNC(=O)N3CCN(c4ccccc4)CC3)CC2)c2ccccc2n1 [Compound 13, N-(4-(4-(2-(tert-Butyl)quinazolin-4-yl)piperazin-1-yl)butyl)-4-phenylpiperazine-1-carboxamide] | – | – | – | Insoluble |
